Measurements from patent US12435044B2, “Pyridazinone herbicides and pyridazinone intermediates used to prepare a herbicide” (FMC Corporation, priority 2018, dated 2025).

Experiments:
Assay in all cases: Test C pre-/postemergence greenhouse test
Type in all cases: in vivo
Conditions in all cases: scale 0 to 100
oat, wild (Avena fatua) = system: oat, wild (Avena fatua)
Method in brief: (§1)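 Seeds sown in silt loam soil and sprayed preemergence with test chemicals in a non-phytotoxic solvent mixture containing surfactant. Postemergence plants, 2 to 18 cm (1- to 4-leaf stage), grown in peat/vermiculite planting medium and treated with the same formulation. Visual injury rated 0–100 versus untreated controls after 13 to 21 d in the greenhouse.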

[1] = system: blackgrass (Alopecurus myosuroides)
Method in brief: as §1

[2] = system: ragweed (common ragweed, Ambrosia elatior)
Method in brief: as §1

[3] = system: oilseed rape (Brassica napus)
Method in brief: as §1

[4] = system: velvetleaf (Abutilon theophrasti)
Method in brief: as §1

[5] = system: morningglory (Ipomoea coccinea)
Method in brief: as §1

[6] = system: waterhemp (common waterhemp, Amaranthus rudis)
Method in brief: as §1

[7] = system: wheat, winter (winter wheat, Triticum aestivum)
Method in brief: as §1

[8] = system: barnyardgrass (Echinochloa crus-galli)
Method in brief: as §1

Cc1ccc2ccc(Cl)cc2c1-c1c(O)c(Cl)nn(C)c1=O [Cpd. No. 22]
Plant response rating, Oat, Wild (oat, wild (Avena fatua); Postemergence, 16 g ai/ha): 98 | Plant response rating, Oat, Wild (oat, wild (Avena fatua); Postemergence, 31 g ai/ha): 100 | Plant response rating, Oat, Wild (oat, wild (Avena fatua); Postemergence, 62 g ai/ha): 100 | Plant response rating, Oat, Wild (oat, wild (Avena fatua); Postemergence, 125 g ai/ha): 100 | Plant response rating, Oat, Wild (oat, wild (Avena fatua); Preemergence, 31 g ai/ha): 30 | Plant response rating, Oat, Wild (oat, wild (Avena fatua); Preemergence, 61 g ai/ha): 0 | Plant response rating, Oat, Wild (oat, wild (Avena fatua); Preemergence, 62 g ai/ha): 45 | Plant response rating, Oat, Wild (oat, wild (Avena fatua); Preemergence, 125 g ai/ha): 95 | Plant response rating, Blackgrass ([1]; Postemergence, 16 g ai/ha): 70 | Plant response rating, Blackgrass ([1]; Postemergence, 31 g ai/ha): 85 | Plant response rating, Blackgrass ([1]; Postemergence, 62 g ai/ha): 90 | Plant response rating, Blackgrass ([1]; Postemergence, 125 g ai/ha): 100 | Plant response rating, Blackgrass ([1]; Preemergence, 31 g ai/ha): 25 | Plant response rating, Blackgrass ([1]; Preemergence, 61 g ai/ha): 5 | Plant response rating, Blackgrass ([1]; Preemergence, 62 g ai/ha): 30 | Plant response rating, Blackgrass ([1]; Preemergence, 125 g ai/ha): 85 | Plant response rating, Ragweed ([2]; Postemergence, 16 g ai/ha): 90 | Plant response rating, Ragweed ([2]; Postemergence, 31 g ai/ha): 95 | Plant response rating, Ragweed ([2]; Postemergence, 62 g ai/ha): 100 | Plant response rating, Ragweed ([2]; Postemergence, 125 g ai/ha): 100 | Plant response rating, Ragweed ([2]; Preemergence, 31 g ai/ha): 60 | Plant response rating, Ragweed ([2]; Preemergence, 61 g ai/ha): 60 | Plant response rating, Ragweed ([2]; Preemergence, 62 g ai/ha): 90 | Plant response rating, Ragweed ([2]; Preemergence, 125 g ai/ha): 100 | Plant response rating, Oilseed Rape ([3]; Postemergence, 16 g ai/ha): 85 | Plant response rating, Oilseed Rape ([3]; Postemergence, 31 g ai/ha): 90 | Plant response rating, Oilseed Rape ([3]; Postemergence, 62 g ai/ha): 95 | Plant response rating, Oilseed Rape ([3]; Postemergence, 125 g ai/ha): 100 | Plant response rating, Oilseed Rape ([3]; Preemergence, 31 g ai/ha): 0 | Plant response rating, Oilseed Rape ([3]; Preemergence, 61 g ai/ha): 0 | Plant response rating, Oilseed Rape ([3]; Preemergence, 62 g ai/ha): 100 | Plant response rating, Oilseed Rape ([3]; Preemergence, 125 g ai/ha): 100 | Plant response rating, Velvetleaf ([4]; Postemergence, 16 g ai/ha): 55 | Plant response rating, Velvetleaf ([4]; Postemergence, 31 g ai/ha): 60 | Plant response rating, Velvetleaf ([4]; Postemergence, 62 g ai/ha): 80 | Plant response rating, Velvetleaf ([4]; Postemergence, 125 g ai/ha): 85 | Plant response rating, Velvetleaf ([4]; Preemergence, 31 g ai/ha): 60 | Plant response rating, Velvetleaf ([4]; Preemergence, 61 g ai/ha): 10 | Plant response rating, Velvetleaf ([4]; Preemergence, 62 g ai/ha): 90 | Plant response rating, Velvetleaf ([4]; Preemergence, 125 g ai/ha): 80 | Plant response rating, Morningglory ([5]; Postemergence, 16 g ai/ha): 85 | Plant response rating, Morningglory ([5]; Postemergence, 31 g ai/ha): 100 | Plant response rating, Morningglory ([5]; Postemergence, 62 g ai/ha): 100 | Plant response rating, Morningglory ([5]; Postemergence, 125 g ai/ha): 100 | Plant response rating, Morningglory ([5]; Preemergence, 31 g ai/ha): 35 | Plant response rating, Morningglory ([5]; Preemergence, 61 g ai/ha): 25 | Plant response rating, Morningglory ([5]; Preemergence, 125 g ai/ha): 85 | Plant response rating, Waterhemp ([6]; Postemergence, 16 g ai/ha): 75 | Plant response rating, Waterhemp ([6]; Postemergence, 31 g ai/ha): 85 | Plant response rating, Waterhemp ([6]; Postemergence, 62 g ai/ha): 85 | Plant response rating, Waterhemp ([6]; Postemergence, 125 g ai/ha): 90 | Plant response rating, Waterhemp ([6]; Preemergence, 31 g ai/ha): 85 | Plant response rating, Waterhemp ([6]; Preemergence, 61 g ai/ha): 70 | Plant response rating, Waterhemp ([6]; Preemergence, 62 g ai/ha): 95 | Plant response rating, Waterhemp ([6]; Preemergence, 125 g ai/ha): 95 | Plant response rating, Wheat ([7]; Postemergence, 16 g ai/ha): 85 | Plant response rating, Wheat ([7]; Postemergence, 31 g ai/ha): 90 | Plant response rating, Wheat ([7]; Postemergence, 62 g ai/ha): 90 | Plant response rating, Wheat ([7]; Postemergence, 125 g ai/ha): 95 | Plant response rating, Wheat ([7]; Preemergence, 31 g ai/ha): 85 | Plant response rating, Wheat ([7]; Preemergence, 61 g ai/ha): 60 | Plant response rating, Wheat ([7]; Preemergence, 62 g ai/ha): 95 | Plant response rating, Wheat ([7]; Preemergence, 125 g ai/ha): 100 | Plant response rating, Barnyardgrass ([8]; Postemergence, 16 g ai/ha): 85 | Plant response rating, Barnyardgrass ([8]; Postemergence, 31 g ai/ha): 90 | Plant response rating, Barnyardgrass ([8]; Postemergence, 62 g ai/ha): 95 | Plant response rating, Barnyardgrass ([8]; Postemergence, 125 g ai/ha): 95 | Plant response rating, Barnyardgrass ([8]; Preemergence, 31 g ai/ha): 65 | Plant response rating, Barnyardgrass ([8]; Preemergence, 61 g ai/ha): 5 | Plant response rating, Barnyardgrass ([8]; Preemergence, 62 g ai/ha): 85 | Plant response rating, Barnyardgrass ([8]; Preemergence, 125 g ai/ha): 100
